In patent US20260266848A1, “COMPOSITIONS AND METHODS FOR DIAGNOSING AND TREATING DYSTONIA” (Duke University, priority 2023, published 2026):

Experiments:
DYT-TOR1A MEF EVs = experiment: Quantitative LC-MS/MS proteomics of EVs from drug-treated DYT-TOR1A MEF cultures (ritonavir, salubrinal); type: cell-based, mouse; parameters: key to RTV Corrective Direction / RTV Corrective Direction, Grwd1 / RTV Corrective Direction, Srrm2 / RTV Corrective Direction, Rbm17 / RTV Corrective Direction, Dcaf8 / RTV Corrective Direction, Edil3 / RTV Corrective Direction, Timp3 / RTV Corrective Direction, Heatr3 / RTV Corrective Direction, Brd4 / RTV Corrective Direction, P3h4 / RTV Corrective Direction, Pacsin3 / RTV Corrective Direction, Naa50 / RTV Corrective Direction, Lpar6 / RTV Corrective Direction, Ndrg1 / RTV Corrective Direction, Kntc1 / RTV Corrective Direction, Cdk11b / RTV Corrective Direction, Sumo1 / RTV Corrective Direction, Lsm4 / RTV Corrective Direction, Hmga2 / RTV Corrective Direction, Cstf1 / RTV Corrective Direction, Tes / RTV Corrective Direction, Sbno1 / RTV Corrective Direction, Unc119b / RTV Corrective Direction, Cfdp1 / RTV Corrective Direction, Sec61b: YES = protein abundance effect opposite to DYT/WT; conditions: EV protein abundance; for RTV Corrective Direction: DYT + RTV (ritonavir) vs DYT, direction compared with DYT/WT; for DYT + RTV/DYT Cohen's d: ritonavir (RTV)-treated DYT vs DYT
WT MEF EVs = experiment: Quantitative LC-MS/MS proteomics of EVs from ISRIB-treated WT MEF cultures; type: cell-based, mouse; parameters: key to ISRIB and DYT Parallel Direction / ISRIB and DYT Parallel Direction, Ctdsp1 / ISRIB and DYT Parallel Direction, Pcdh19 / ISRIB and DYT Parallel Direction, Tspan7 / ISRIB and DYT Parallel Direction, Myo1e / ISRIB and DYT Parallel Direction, Plpp3 / ISRIB and DYT Parallel Direction, Sh3bp4 / ISRIB and DYT Parallel Direction, Dnajc7 / ISRIB and DYT Parallel Direction, Drg1 / ISRIB and DYT Parallel Direction, Maea: YES = protein abundance effect similar to DYT/WT; conditions: EV protein abundance; for WT + ISRIB/WT Cohen's d: ISRIB-treated WT vs WT; for ISRIB and DYT Parallel Direction: WT + ISRIB vs WT, direction compared with DYT/WT

Substance | RTV Corrective Direction (DYT-TOR1A MEF EVs) | DYT + RTV/DYT Cohen's d (DYT-TOR1A MEF EVs) | WT + ISRIB/WT Cohen's d (WT MEF EVs) | ISRIB and DYT Parallel Direction (WT MEF EVs)
Cnot1 | YES | 5.54 | −2.56 | YES
Col5a1 | YES | −0.89 | 0.06 | YES
